Measurements as given in ChEMBL document CHEMBL3763146 (J Med Chem, 2016).

Columns and labels:
[1] = target: Sodium-dependent serotonin transporter (Homo sapiens, UniProt P31645); assay: Inhibition of human SERT expressed in HEK293 cells preincubated for 30 mins followed by fluorescent substrate addition measured after 30 mins by plate reader analysis; type: cell-based
[2] = Distribution coefficient, logD of the compound at pH 7.4; type: physicochemical; conditions: octanol/water
[3] = target: Sodium channel protein type 2 subunit alpha (Homo sapiens, UniProt Q99250); assay: Inhibition of human Nav1.2 channel expressed in Xenopus oocytes by two-intracellular microelectrode voltage clamp method; type: cell-based
Chain of Sodium channel protein type 2 subunit alpha (Q99250 whole entry, looked up): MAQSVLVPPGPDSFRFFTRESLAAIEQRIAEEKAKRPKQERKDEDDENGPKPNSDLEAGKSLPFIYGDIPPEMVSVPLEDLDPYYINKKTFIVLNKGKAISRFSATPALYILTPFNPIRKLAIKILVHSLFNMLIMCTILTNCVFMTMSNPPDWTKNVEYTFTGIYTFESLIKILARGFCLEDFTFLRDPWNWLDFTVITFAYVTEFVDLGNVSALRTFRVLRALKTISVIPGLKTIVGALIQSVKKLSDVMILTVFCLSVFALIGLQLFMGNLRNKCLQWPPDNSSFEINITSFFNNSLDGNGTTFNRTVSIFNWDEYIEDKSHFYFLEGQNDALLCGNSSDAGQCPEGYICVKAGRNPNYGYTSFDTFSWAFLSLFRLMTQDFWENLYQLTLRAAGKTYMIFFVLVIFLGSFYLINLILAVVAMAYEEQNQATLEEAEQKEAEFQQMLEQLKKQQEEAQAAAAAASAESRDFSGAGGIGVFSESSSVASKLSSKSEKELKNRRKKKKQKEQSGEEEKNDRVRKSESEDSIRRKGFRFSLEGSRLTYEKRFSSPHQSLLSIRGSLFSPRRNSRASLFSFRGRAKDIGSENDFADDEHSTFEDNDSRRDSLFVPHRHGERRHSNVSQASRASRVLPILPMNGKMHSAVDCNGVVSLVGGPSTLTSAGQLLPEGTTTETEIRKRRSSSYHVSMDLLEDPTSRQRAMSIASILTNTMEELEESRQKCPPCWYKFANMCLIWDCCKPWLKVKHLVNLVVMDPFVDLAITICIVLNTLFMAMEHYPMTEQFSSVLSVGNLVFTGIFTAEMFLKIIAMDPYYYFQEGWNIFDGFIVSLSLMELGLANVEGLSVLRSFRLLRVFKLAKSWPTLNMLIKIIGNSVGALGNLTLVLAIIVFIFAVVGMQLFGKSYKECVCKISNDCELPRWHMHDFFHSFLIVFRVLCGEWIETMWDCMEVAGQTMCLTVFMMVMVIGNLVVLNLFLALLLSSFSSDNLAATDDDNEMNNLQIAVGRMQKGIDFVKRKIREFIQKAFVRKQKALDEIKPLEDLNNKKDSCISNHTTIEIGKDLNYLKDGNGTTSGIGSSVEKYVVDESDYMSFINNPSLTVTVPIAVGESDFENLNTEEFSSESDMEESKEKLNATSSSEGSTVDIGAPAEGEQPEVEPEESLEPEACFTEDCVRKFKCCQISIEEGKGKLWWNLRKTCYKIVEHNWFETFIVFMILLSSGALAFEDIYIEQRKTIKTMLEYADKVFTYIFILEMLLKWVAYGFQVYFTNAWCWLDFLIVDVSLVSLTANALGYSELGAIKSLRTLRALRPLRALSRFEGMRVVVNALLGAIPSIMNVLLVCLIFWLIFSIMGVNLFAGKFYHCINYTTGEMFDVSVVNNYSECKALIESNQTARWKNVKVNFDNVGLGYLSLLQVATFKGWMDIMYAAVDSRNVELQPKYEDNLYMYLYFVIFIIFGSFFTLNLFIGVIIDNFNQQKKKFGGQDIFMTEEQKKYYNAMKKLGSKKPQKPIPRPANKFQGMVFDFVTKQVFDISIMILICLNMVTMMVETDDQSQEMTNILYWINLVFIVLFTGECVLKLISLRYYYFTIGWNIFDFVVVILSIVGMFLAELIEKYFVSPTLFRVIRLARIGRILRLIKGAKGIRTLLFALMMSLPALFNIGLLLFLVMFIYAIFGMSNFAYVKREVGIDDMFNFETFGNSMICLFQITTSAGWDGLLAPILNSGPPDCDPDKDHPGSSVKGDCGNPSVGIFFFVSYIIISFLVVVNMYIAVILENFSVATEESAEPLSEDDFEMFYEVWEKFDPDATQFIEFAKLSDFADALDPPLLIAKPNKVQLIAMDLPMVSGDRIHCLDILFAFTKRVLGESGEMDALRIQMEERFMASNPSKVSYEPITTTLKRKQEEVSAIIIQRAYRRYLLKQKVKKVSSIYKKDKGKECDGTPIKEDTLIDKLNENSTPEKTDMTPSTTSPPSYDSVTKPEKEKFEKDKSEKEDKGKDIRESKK

[4] = target: Voltage-gated inwardly rectifying potassium channel KCNH2 (Homo sapiens, UniProt Q12809); assay: Binding affinity to human ERG channel
[5] = target: T1, Beta-3 adrenergic receptor (Homo sapiens, UniProt P13945); assay: Agonist activity at human beta3 adrenergic receptor expressed in CHO cells assessed as accumulation of cAMP after 30 mins by TR-FRET assay relative to (R)-(-)-isoproterenol; type: functional, cell-based
Target sequence in this assay (P13945 whole entry, looked up): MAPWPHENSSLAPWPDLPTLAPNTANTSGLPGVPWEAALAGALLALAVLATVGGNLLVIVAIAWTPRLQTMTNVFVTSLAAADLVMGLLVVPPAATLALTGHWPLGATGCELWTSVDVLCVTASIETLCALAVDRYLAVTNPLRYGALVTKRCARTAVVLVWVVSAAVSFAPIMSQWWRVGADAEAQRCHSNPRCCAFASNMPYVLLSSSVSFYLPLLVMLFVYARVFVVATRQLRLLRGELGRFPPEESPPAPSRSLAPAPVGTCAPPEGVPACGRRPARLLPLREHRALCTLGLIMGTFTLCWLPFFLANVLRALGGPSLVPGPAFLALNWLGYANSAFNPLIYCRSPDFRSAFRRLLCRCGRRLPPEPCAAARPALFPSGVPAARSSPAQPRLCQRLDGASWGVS

[6] = target: T1, Beta-3 adrenergic receptor; assay: Agonist activity at human beta3 adrenergic receptor expressed in CHO cells assessed as accumulation of cAMP after 30 mins by TR-FRET assay; type: functional, cell-based
Target sequence in this assay (P13945 whole entry): as the sequence (P13945 whole entry, looked up) above

[7] = target: Beta-2 adrenergic receptor (Homo sapiens, UniProt P07550)
Chain of Beta-2 adrenergic receptor (P07550 whole entry): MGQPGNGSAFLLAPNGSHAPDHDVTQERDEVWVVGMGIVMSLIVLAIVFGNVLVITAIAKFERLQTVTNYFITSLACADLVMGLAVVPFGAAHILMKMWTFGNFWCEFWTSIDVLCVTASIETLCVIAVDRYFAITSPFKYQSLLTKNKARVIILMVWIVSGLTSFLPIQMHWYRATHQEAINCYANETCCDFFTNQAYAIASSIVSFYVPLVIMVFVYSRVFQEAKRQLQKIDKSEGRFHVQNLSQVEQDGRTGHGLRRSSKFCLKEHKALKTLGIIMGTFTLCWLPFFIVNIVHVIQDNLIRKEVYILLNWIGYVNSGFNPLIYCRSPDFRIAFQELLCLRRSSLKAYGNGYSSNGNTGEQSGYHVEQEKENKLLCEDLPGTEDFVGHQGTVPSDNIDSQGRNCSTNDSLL
Description: Displacement of [125]I-cyanopindolol from human recombinant beta2 adrenergic receptor after 1 hr by scintillation counting method

[8] = target: Beta-1 adrenergic receptor (Homo sapiens, UniProt P08588)
Chain of Beta-1 adrenergic receptor (P08588 whole entry, the tested form may be a part): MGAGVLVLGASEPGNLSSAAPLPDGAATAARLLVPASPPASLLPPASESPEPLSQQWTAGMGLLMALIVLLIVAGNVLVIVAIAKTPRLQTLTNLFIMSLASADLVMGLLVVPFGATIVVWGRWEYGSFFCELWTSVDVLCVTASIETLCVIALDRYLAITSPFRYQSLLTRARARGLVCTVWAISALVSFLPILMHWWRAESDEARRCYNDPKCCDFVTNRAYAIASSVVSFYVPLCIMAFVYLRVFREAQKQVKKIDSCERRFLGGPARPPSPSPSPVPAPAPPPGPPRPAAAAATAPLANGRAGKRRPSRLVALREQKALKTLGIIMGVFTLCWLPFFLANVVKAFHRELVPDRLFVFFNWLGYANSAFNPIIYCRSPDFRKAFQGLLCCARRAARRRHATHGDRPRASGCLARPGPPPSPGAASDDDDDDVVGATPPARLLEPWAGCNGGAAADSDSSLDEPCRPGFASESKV
Description: Displacement of [125]I-cyanopindolol from recombinant human beta1 adrenergic receptor after 1 hr by scintillation counting method

Rattus norvegicus [9] = assay: Increase in circulating glycerol level in iv infused Sprague-Dawley rat after 45 mins by liquid chromatography-tandem mass spectrometric analysis; type: functional
Rattus norvegicus [10] = assay: Increase in circulating free fatty acid level in iv infused Sprague-Dawley rat after 45 mins by liquid chromatography-tandem mass spectrometric analysis; type: functional
[11] = target: Beta-3 adrenergic receptor (Canis lupus familiaris, UniProt O02662); assay: Agonist activity at dog beta3 adrenergic receptor expressed in CHO cells assessed as accumulation of cAMP after 30 mins by TR-FRET assay; type: functional, cell-based
[12] = target: T1, Beta-3 adrenergic receptor; assay: Agonist activity at human adrenergic beta3 receptor expressed in CHO cells assessed as accumulation of cAMP after 30 mins by TR-FRET assay in presence of 40% serum relative to (R)-(-)-isoproterenol; type: functional, cell-based
Target sequence in this assay (P13945 whole entry, looked up): as the sequence (P13945 whole entry, looked up) above

[13] = target: Beta-3 adrenergic receptor (Rattus norvegicus) (UniProt P26255); assay: Agonist activity at rat beta3 adrenergic receptor expressed in CHO cells assessed as accumulation of cAMP after 30 mins by TR-FRET assay in presence of 40% serum relative to (R)-(-)-isoproterenol; type: functional, cell-based
Chain of Beta-3 adrenergic receptor (Rattus norvegicus) (P26255 whole entry): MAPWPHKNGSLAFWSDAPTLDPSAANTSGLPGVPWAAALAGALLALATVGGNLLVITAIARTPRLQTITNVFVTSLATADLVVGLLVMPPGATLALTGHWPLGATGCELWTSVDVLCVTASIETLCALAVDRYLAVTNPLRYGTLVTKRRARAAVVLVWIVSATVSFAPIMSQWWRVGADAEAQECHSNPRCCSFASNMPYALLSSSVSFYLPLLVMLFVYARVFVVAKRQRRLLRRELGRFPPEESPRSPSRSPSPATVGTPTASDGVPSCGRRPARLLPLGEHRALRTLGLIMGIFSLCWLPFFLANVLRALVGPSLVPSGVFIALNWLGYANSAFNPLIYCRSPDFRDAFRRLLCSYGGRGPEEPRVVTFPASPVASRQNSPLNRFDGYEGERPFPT

[14] = Induction of phospholidosis in human HepG2 cells incubated overnight by […] in presence of fluorescent labeled phospholipid probe NBD-PE; type: cell-based; conditions: read-out: A50
[15] = target: Voltage-dependent L-type calcium channel subunit alpha-1C (Homo sapiens, UniProt Q13936); assay: Displacement of [3H]-diltiazem from human Cav1.2 channel
Cytochrome P450 3A4 = Cytochrome P450 3A4 (Homo sapiens, UniProt P08684); assay: Inhibition of CYP3A4 in human liver microsomes assessed as testosterone 6beta-hydroxylation; type: ADME
Chain of Cytochrome P450 3A4 (P08684 whole entry): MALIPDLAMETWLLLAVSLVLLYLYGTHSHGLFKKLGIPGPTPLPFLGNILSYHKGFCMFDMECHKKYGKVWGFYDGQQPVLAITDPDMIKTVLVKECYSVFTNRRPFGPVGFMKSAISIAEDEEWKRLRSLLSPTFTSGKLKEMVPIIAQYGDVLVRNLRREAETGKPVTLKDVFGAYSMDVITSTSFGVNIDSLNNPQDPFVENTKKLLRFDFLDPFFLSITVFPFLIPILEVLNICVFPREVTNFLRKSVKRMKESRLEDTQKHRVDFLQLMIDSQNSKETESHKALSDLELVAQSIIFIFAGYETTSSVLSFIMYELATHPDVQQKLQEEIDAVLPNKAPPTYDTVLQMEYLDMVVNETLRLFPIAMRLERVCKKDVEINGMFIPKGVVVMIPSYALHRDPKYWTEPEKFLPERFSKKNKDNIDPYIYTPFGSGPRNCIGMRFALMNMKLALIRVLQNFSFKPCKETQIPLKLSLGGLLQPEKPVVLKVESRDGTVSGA

Cytochrome P450 2D6 = Cytochrome P450 2D6 (Homo sapiens, UniProt P10635); assay: Inhibition of CYP2D6 in human liver microsomes assessed as dextraomethorphan O-demethylation; type: ADME
Cytochrome P450 2C9 = Cytochrome P450 2C9 (Homo sapiens, UniProt P11712); assay: Inhibition of CYP2C9 in human liver microsomes assessed as diclofenac alpha'-hydroxylation; type: ADME
[16] = Plasma clearance in rat at 1 mg/kg, iv or 2 mg/kg, po; type: ADME, organism-based
[17] = Plasma clearance in dog at 0.5 mg/kg, iv or 2 mg/kg, po; type: ADME, organism-based, Canis lupus familiaris
[18] = Stability in human plasma assessed as parent compound remaining at 24 hrs by LC-MS analysis; type: ADME, cell-free; conditions: read-out: Stability
[19] = Plasma clearance in rhesus monkey at 0.5 mg/kg, iv or 2 mg/kg, po; type: ADME, organism-based, Macaca mulatta
Rattus norvegicus [20] = assay: Unbound clearance in rat at 1 mg/kg, iv or 2 mg/kg, po; type: ADME, organism-based; conditions: in vivo
Canis familiaris [21] = assay: Unbound clearance in dog at 0.5 mg/kg, iv or 2 mg/kg, po; type: ADME, organism-based, Canis lupus familiaris; conditions: in vivo
Rhesus monkey [22] = assay: Unbound clearance in rhesus monkey at 0.5 mg/kg, iv or 2 mg/kg, po; type: ADME, organism-based, Macaca mulatta; conditions: in vivo
[23] = Half life in rat at 1 mg/kg, iv or 2 mg/kg, po; type: ADME, organism-based; conditions: in vivo
[24] = Half life in dog at 0.5 mg/kg, iv or 2 mg/kg, po; type: ADME, organism-based, Canis lupus familiaris; conditions: in vivo
[25] = Half life in rhesus monkey at 0.5 mg/kg, iv or 2 mg/kg, po; type: ADME, organism-based, Macaca mulatta; conditions: in vivo
Rattus norvegicus [26] = assay: Dose normalized total AUC in rat at 2 mg/kg, po; type: ADME, organism-based; conditions: in vivo
Canis familiaris [27] = assay: Dose normalized total AUC in dog at 2 mg/kg, po; type: ADME, organism-based, Canis lupus familiaris; conditions: in vivo
Rhesus monkey [28] = assay: Dose normalized total AUC in rhesus monkey at 2 mg/kg, po; type: ADME, organism-based, Macaca mulatta; conditions: in vivo
Rattus norvegicus [29] = assay: Dose normalized fAUC in rat at 2 mg/kg, po; type: ADME, organism-based; conditions: in vivo
Canis familiaris [30] = assay: Dose normalized fAUC in dog at 2 mg/kg, po; type: ADME, organism-based, Canis lupus familiaris; conditions: in vivo
Rhesus monkey [31] = assay: Dose normalized fAUC in rhesus monkey at 2 mg/kg, po; type: ADME, organism-based, Macaca mulatta; conditions: in vivo
[32] = Oral bioavailability in rat at 2 mg/kg; type: ADME, organism-based; conditions: in vivo
[33] = Oral bioavailability in dog at 2 mg/kg; type: ADME, organism-based, Canis lupus familiaris; conditions: in vivo
[34] = Oral bioavailability in rhesus monkey at 2 mg/kg; type: ADME, organism-based, Macaca mulatta; conditions: in vivo
[35] = Fraction unbound in rat at 1 mg/kg, iv or 2 mg/kg, po; type: ADME, organism-based; conditions: in vivo
[36] = Fraction unbound in dog at 0.5 mg/kg, iv or 2 mg/kg, po; type: ADME, organism-based, Canis lupus familiaris; conditions: in vivo
[37] = Fraction unbound in rhesus monkey at 0.5 mg/kg, iv or 2 mg/kg, po; type: ADME, organism-based, Macaca mulatta; conditions: in vivo
[38] = Intrinsic clearance in rat liver microsomes; type: ADME; conditions: read-out: CLH
[39] = Intrinsic clearance in dog liver microsomes; type: ADME, Canis lupus familiaris; conditions: read-out: CLH
[40] = Intrinsic clearance in human liver microsomes; type: ADME; conditions: read-out: CLH
[41] = Intrinsic clearance in rhesus monkey liver microsomes; type: ADME, Macaca mulatta; conditions: read-out: CLH
[42] = Stability in rat plasma assessed as parent compound remaining at 24 hrs by LC-MS analysis; type: ADME, cell-free; conditions: read-out: Stability
[43] = Stability in dog plasma assessed as parent compound remaining at 24 hrs by LC-MS analysis; type: ADME, cell-free, Canis lupus familiaris; conditions: read-out: Stability
[44] = Stability in rhesus monkey plasma assessed as parent compound remaining at 24 hrs by LC-MS analysis; type: ADME, cell-free, Macaca mulatta; conditions: read-out: Stability
[45] = target: T2, Beta-3 adrenergic receptor (Rattus norvegicus, UniProt P26255); assay: Agonist activity at rat beta3 adrenergic receptor expressed in CHO cells assessed as accumulation of cAMP after 30 mins by TR-FRET assay; type: functional, cell-based
T2 sequence (P26255 whole entry): as the sequence (P26255 whole entry) above

[46] = target: Beta-3 adrenergic receptor (Rattus norvegicus) (UniProt P26255); assay: Agonist activity at rat beta3 adrenergic receptor expressed in CHO cells assessed as accumulation of cAMP after 30 mins by TR-FRET assay relative to (R)-(-)-isoproterenol; type: functional, cell-based
[47] = target: Beta-3 adrenergic receptor (Macaca mulatta, UniProt Q28524); assay: Agonist activity at rhesus monkey beta3 adrenergic receptor expressed in CHO cells assessed as accumulation of cAMP after 30 mins by TR-FRET assay; type: functional, cell-based
[48] = target: Beta-3 adrenergic receptor (Macaca mulatta) (UniProt Q28524); assay: Agonist activity at rhesus monkey beta3 adrenergic receptor expressed in CHO cells assessed as accumulation of cAMP after 30 mins by TR-FRET assay relative to (R)-(-)-isoproterenol; type: functional, cell-based
[49] = target: T2, Beta-3 adrenergic receptor; assay: Agonist activity at rat beta3 adrenergic receptor expressed in CHO cells assessed as accumulation of cAMP after 30 mins by TR-FRET assay in presence of 40% serum; type: functional, cell-based
[50] = target: T1, Beta-3 adrenergic receptor; assay: Agonist activity at human adrenergic beta3 receptor expressed in CHO cells assessed as accumulation of cAMP after 30 mins by TR-FRET assay in presence of 40% serum; type: functional, cell-based
Target sequence in this assay (P13945 whole entry): as the sequence (P13945 whole entry, looked up) above

Rattus norvegicus [51] = assay: Increase in detrusor muscle relaxation in iv infused Sprague-Dawley rat acetic acid-induced bladder hyperreflexia model assessed as decrease in micturition pressure measured over 30 to 45 mins; type: functional, organism-based
Rattus norvegicus [52] = assay: Increase in detrusor muscle relaxation in iv infused Sprague-Dawley rat acetic acid-induced bladder hyperreflexia model assessed as increase in functional bladder capacity measured over 30 to 45 mins; type: organism-based

Chain of Sodium-dependent serotonin transporter (P31645 whole entry): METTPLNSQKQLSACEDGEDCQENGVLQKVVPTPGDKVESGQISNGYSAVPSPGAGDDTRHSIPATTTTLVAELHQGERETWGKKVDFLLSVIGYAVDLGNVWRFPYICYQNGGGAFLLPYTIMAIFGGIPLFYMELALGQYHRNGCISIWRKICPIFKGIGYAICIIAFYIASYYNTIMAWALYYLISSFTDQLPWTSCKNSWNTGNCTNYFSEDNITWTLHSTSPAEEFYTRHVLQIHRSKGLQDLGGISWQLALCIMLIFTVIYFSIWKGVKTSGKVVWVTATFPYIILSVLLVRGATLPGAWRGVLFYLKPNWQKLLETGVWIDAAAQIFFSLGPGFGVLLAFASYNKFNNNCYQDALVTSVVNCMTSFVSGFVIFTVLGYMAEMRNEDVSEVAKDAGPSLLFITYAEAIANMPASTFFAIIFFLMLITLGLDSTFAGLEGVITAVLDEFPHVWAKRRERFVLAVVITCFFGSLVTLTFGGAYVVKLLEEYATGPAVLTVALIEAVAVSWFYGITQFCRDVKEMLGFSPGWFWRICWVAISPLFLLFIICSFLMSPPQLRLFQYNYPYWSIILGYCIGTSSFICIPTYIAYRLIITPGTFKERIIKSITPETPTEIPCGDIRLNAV

Structure (SMILES): Nc1nc(CC(=O)Nc2ccc(C[C@@H]3CC[C@H]([C@H](O)c4ccccc4)N3)cc2)cs1
- IC50 [1]: 1.4 µM
- logD [2]: 1.2
- IC50 [3]: 30 µM
- IC50 [4]: 19 µM
- max activation [5]: 92%
- EC50 [6]: 0.0009 µM
- IC50 [7]: > 20 µM
- IC50 [8]: > 20 µM

Structure (SMILES): Nc1nc(CC(=O)Nc2ccc(CCNC[C@H](O)c3ccccc3)cc2)cs1 [MIRABEGRON]
- Activity (Rattus norvegicus [9]): Dose-dependent effect
- minimal effective dose (Rattus norvegicus [9]; 0.75 h, read-out: MED): 0.3 mg/kg
- Activity (Rattus norvegicus [10]): Dose-dependent effect
- minimal effective dose (Rattus norvegicus [10]; 0.75 h, read-out: MED): 0.3 mg/kg

Structure (SMILES): O=C(Cn1ncccc1=O)Nc1ccc(C[C@@H]2CC[C@H]([C@H](O)c3ccccc3)N2)cc1
- EC50 [11]: 0.047 µM
- max activation [12]: 96%
- max activation [13]: 99%
- AC50 [14]: 67 µM
- IC50 [1]: 4.4 µM
- logD [2]: 1
- IC50 [3]: > 30 µM
- IC50 [15]: > 30 µM
- IC50 (Cytochrome P450 3A4): > 100 µM
- IC50 (Cytochrome P450 2D6): > 100 µM
- IC50 (Cytochrome P450 2C9): > 100 µM
- max activation [5]: 105%
- EC50 [6]: 0.0048 µM
- clearance [16]: 40 mL/min/kg
- clearance [17]: 7.4 mL/min/kg
- remaining at 24 h [18]: 26%
- clearance [19]: 21 mL/min/kg
- CL free (Rattus norvegicus [20]): 148 mL/min/kg
- CL free (Canis familiaris [21]): 15 mL/min/kg
- CL free (Rhesus monkey [22]): 33 mL/min/kg
- half-life [23]: 5 h
- half-life [24]: 8 h
- half-life [25]: 9 h
- AUC/dose (Rattus norvegicus [26]): 66 nM·h/mg/kg
- AUC/dose (Canis familiaris [27]): 1200 nM·h/mg/kg
- AUC/dose (Rhesus monkey [28]): 820 nM·h/mg/kg
- fAUC/dose (Rattus norvegicus [29]): 17 nM·h/mg/kg
- fAUC/dose (Canis familiaris [30]): 612 nM·h/mg/kg
- fAUC/dose (Rhesus monkey [31]): 517 nM·h/mg/kg
- bioavailability [32]: 14%
- bioavailability [33]: 18%
- bioavailability [34]: 46%
- fraction unbound [35]: 0.27
- fraction unbound [36]: 0.51
- fraction unbound [37]: 0.63
- CLint scaled [38]: < 15 mL/min/kg
- CLint scaled [39]: 11 mL/min/kg
- CLint scaled [40]: < 10 mL/min/kg
- CLint scaled [41]: < 10 mL/min/kg
- remaining at 24 h [42]: 95%
- remaining at 24 h [43]: 100%
- remaining at 24 h [44]: 95%
- EC50 [45]: 0.615 µM
- max activation [46]: 79%
- EC50 [47]: 0.0035 µM
- max activation [48]: 91%
- EC50 [49]: 1.06 µM
- EC50 [50]: 0.0059 µM
- Activity (Rattus norvegicus [51]): Dose-dependent effect
- Activity (Rattus norvegicus [52]): Dose-dependent effect
- IC50 [7]: > 20 µM
- IC50 [8]: > 20 µM

Structure (SMILES): O=C(Nc1ccc(C[C@@H]2CC[C@H]([C@H](O)c3cccnc3)N2)cc1)[C@@H]1CCc2scnc21
- AC50 [14]: 79 µM
- logD [2]: 1.1
- max activation [5]: 82%
- remaining at 24 h [18]: 1%
- remaining at 24 h [42]: 79%

Structure (SMILES): O=C(Cn1cccnc1=O)Nc1ccc(C[C@@H]2CC[C@H]([C@H](O)c3ccccc3)N2)cc1
- AC50 [14]: > 100 µM
- IC50 [1]: 2.5 µM
- logD [2]: 0.6
- IC50 [3]: > 30 µM
- IC50 [15]: > 30 µM
- IC50 [4]: > 30 µM
- IC50 (Cytochrome P450 3A4): > 100 µM
- IC50 (Cytochrome P450 2D6): 39 µM
- IC50 (Cytochrome P450 2C9): > 100 µM
- max activation [5]: 113%
- EC50 [6]: 0.0022 µM
- clearance [16]: 24 mL/min/kg
- half-life [23]: 3 h
- AUC/dose (Rattus norvegicus [26]): 24 nM·h/mg/kg
- bioavailability [32]: 1%
- IC50 [7]: > 20 µM
- IC50 [8]: > 20 µM
